What was measured:
[1] = system: Karpas-299 cell line; test: CellTiter-Glo cell proliferation inhibition on Karpas-299 cell line; assay type: cell-based; details: Homo sapiens, 96 h, Karpas-299 cells, 5000 cells/well, 4 days drug treatment
In short: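 CellTiter-Glo luminescence measured after 4-day compound exposure (0.5% DMSO final) of Karpas-299 cells seeded at 5000/well in RPMI-1640 with 10% FBS, 37 °C, 5% CO2. IC50 derived from percent inhibition relative to vehicle wells.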

[2] = biological target: T1, Wild Type ALK kinase (Homo sapiens, UniProt Q9UM73); test: HTRF KinEASE-TK assay, inhibitory activity on wild type ALK kinase; assay type: biochemical; details: wild type ALK 1 ng/μl, substrate 1 μM, 30° C. 35 minutes, read-out: Inhibition on ALK kinases (wildtype), IC50
T1 construct: purchased Sino-US Crown Bioscience, Inc. batch number ALK 20110607
In short: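 ALK kinase at 1 ng/μl and substrate at 1 μM were reacted with compound (1% DMSO) in buffer with 5 mM MgCl2 and 1 mM DTT for 35 min at 30 °C. HTRF detection used the 665/615 ratio, normalised to no-compound wells and to 10.4 μM LDK-378 wells. IC50 came from a concentration-response fit.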

T1 sequence (Q9UM73 19-1620): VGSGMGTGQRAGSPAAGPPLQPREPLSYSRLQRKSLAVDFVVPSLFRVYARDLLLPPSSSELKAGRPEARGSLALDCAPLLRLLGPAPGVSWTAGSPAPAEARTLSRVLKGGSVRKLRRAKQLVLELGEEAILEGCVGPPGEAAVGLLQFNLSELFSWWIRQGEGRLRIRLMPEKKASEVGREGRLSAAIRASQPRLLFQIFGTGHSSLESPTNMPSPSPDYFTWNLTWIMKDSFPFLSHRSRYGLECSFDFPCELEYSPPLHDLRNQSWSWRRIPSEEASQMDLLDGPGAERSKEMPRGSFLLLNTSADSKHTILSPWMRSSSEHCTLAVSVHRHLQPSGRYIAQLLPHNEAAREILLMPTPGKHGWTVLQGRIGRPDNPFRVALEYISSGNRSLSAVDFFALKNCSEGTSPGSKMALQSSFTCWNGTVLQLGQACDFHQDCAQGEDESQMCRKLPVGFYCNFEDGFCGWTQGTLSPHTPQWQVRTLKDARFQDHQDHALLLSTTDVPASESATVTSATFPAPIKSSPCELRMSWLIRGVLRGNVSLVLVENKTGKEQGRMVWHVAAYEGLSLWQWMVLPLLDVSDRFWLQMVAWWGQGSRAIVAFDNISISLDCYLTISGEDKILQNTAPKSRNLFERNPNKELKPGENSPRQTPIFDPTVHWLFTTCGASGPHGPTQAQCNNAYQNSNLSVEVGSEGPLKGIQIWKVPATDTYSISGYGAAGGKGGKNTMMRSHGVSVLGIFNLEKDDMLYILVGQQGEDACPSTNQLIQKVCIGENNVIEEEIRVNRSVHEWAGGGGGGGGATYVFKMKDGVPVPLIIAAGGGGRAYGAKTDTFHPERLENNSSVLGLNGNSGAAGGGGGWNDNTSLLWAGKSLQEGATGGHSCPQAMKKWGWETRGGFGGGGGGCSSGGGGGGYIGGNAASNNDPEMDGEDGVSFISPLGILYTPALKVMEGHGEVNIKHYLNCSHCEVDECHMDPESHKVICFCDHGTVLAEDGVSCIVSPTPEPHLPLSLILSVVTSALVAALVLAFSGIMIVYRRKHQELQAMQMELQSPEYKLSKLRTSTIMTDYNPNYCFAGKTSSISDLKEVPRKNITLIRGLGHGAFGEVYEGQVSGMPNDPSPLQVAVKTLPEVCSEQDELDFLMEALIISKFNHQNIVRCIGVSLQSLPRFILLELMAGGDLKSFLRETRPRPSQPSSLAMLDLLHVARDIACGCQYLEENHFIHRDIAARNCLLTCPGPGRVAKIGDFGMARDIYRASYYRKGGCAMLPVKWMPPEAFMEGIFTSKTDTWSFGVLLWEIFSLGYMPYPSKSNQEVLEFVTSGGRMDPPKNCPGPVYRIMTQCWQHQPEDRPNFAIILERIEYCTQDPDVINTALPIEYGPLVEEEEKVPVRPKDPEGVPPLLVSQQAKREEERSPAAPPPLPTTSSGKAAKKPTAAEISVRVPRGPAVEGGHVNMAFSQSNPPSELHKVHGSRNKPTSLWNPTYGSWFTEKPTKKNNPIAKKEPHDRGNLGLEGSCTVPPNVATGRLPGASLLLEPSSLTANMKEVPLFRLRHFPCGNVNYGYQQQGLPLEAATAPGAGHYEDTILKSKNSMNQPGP

Row | SMILES | IC50 [1] [nM] | IC50 [2] [nM]
1 | CC(C)Oc1cc(C2CCNCC2)ccc1Nc1ncc(Cl)c(Nc2cn(C)nc2S(=O)(=O)C(C)C)n1 [Final product 1, 5-chloro-N^2-[2-isopropoxy-4-(piperidin-4-yl)phenyl]-N^4-(3-isopropylsulfonyl-1-methyl-1H-pyrazol-4-yl)pyrimidin-2,4-diamine] | 10 | 4
2 | Cc1cc(Nc2ncc(Cl)c(Nc3cn(C)nc3S(=O)(=O)C(C)C)n2)c(OC(C)C)cc1C1CCNCC1 [Final product 2] | 16 | 6
3 | Cc1cc(Nc2ncc(Cl)c(Nc3cn(C)nc3S(=O)(=O)C(C)C)n2)c(OC(C)C)cc1C1CCNC1 (stereo not drawn) [Final product 3] | 28 | 4
4 | Cc1cc(Nc2ncc(Cl)c(Nc3cn(C)nc3S(=O)(=O)CC(C)C)n2)c(OC2CC2)cc1C1CCN(C)CC1 [Final product 57] | 12 | 7
5 | COCC1CC(c2cc(OC3CC3)c(Nc3ncc(Cl)c(Nc4cn(C)nc4S(=O)(=O)C(C)C)n3)cc2C)CCN1C (stereo not drawn) [Final product 77] | 4 | 2
6 | COCC1CC(c2cc(OC3CC3)c(Nc3ncc(Cl)c(Nc4cn(C)nc4S(=O)(=O)CC(C)C)n3)cc2C)CCN1C (stereo not drawn) [Final product 79] | 12 | 3
7 | Cc1cc(Nc2ncc(Cl)c(Nc3cn(C)nc3S(=O)(=O)C(C)C)n2)c(OC2CC2)cc1C1CCN(C)CC1(F)F (stereo not drawn) [Final product 88] | 17 | 6
8 | Cc1cc(Nc2ncc(Cl)c(Nc3cn(C)nc3S(=O)(=O)C(C)C)n2)c(OC2CC2)cc1C1CCC(NS(C)(=O)=O)CC1 (stereo not drawn) [Final product 205, N-(4-(4-(5-chloro-4-(3-(isopropylsulfonyl)-1-methyl-1H-pyrazol-4-amine)pyrimidin-2-amine)-5-cyclopropoxy-2-methylphenyl)cyclohexyl)methanesulfonamide] | 18 | 

Further compounds by falling IC50 [1], results first:

Row | IC50 [1] [nM] | IC50 [2] [nM] | SMILES
9 | 27 | 11 | Cc1cc(Nc2ncc(Cl)c(Nc3cn(C4CC4)nc3S(=O)(=O)C(C)C)n2)c(OC(C)C)cc1C1CCN(C)CC1 [Final product 81]
10 | 25 | 4 | Cc1cc(Nc2ncc(Cl)c(Nc3cn(C)nc3S(=O)(=O)CC(C)C)n2)c(OC2CC2)cc1C1CN(C)C1 [Final product 55]
11 | 21 | 5 | Cc1cc(Nc2ncc(Cl)c(Nc3cn(C4CC4)nc3S(=O)(=O)C(C)C)n2)c(OC2CC2)cc1C1CCN(C)CC1 [Final product 56]
12 | 16 | 3 | Cc1cc(Nc2ncc(Cl)c(Nc3cn(C)nc3S(=O)(=O)C(C)C)n2)c(OC2CC2)cc1C1CCN(C)C1 (stereo not drawn) [Final product 53]
13 | 14 | 4 | COCCN1CCC(c2cc(OC3CC3)c(Nc3ncc(Cl)c(Nc4cn(C)nc4S(=O)(=O)C(C)C)n3)cc2C)CC1 [Final product 82]
14 | 13 | 6 | Cc1cc(Nc2ncc(Cl)c(Nc3cn(C)nc3S(=O)(=O)C(C)C)n2)c(OC2CC2)cc1C1CCN(C)CC1F (stereo not drawn) [Final product 87]
15 | 11 | 4 | COC1CN(C)CCC1c1cc(OC2CC2)c(Nc2ncc(Cl)c(Nc3cn(C)nc3S(=O)(=O)C(C)C)n2)cc1C (stereo not drawn) [Final product 58]
16 | 7 | 3 | Cc1cc(Nc2ncc(Cl)c(Nc3cn(C)nc3S(=O)(=O)C(C)C)n2)c(OC2CC2)cc1C1CN(C)C1 [Final product 54]
17 | 5 | 1 | Cc1cc(Nc2ncc(Cl)c(Nc3cn(C)nc3S(=O)(=O)C(C)C)n2)c(OC2CC2)cc1C1CCN(C)CC1C (stereo not drawn) [Final product 90]
